We go through one compound from patent US11660303B2, “2-phenylimidazo[4,5-b]pyridin-7-amine derivates useful as inhibitors of mammalian tyrosine kinase ROR1 activity” (KANCERA AB, priority 2016, dated 2023).

As a reminder, the IC50 is the concentration needed to halve the response being measured. Higher therefore signals weaker potency in that assay.

Each structure is given as a SMILES string.

Type in all cases: cell-based
The test system of assay [1] is H1417. Briefly: Alamar Blue cell viability assay, H1417. To be noted: Homo sapiens, NCI-H1417; H1417, Small cell lung cancer, alamarBlue, incubation 72 h. Here is the method:
(§1) Alamar Blue Cell Viability Assay
(§2) Cells were plated 12 hours prior to start of drug treatment, which lasted for 72 hours for all cytotoxicity experiments. Cell viability was estimated by alamarBlue™ Cell Viability Reagent (ThermoFisher, Waltham, Mass.) per manufacturer's instructions.
(§3) Results, in terms of IC50 (μM), are shown in Table 4 for a representative compound of the invention, viz. Example 172.
A general note: Alamar Blue is a resazurin reagent that responds to reducing activity.

Assay [2] relates to MDA-MB-231. Briefly: MTT cytotoxicity assay, MDA-MB-231. The settings on record: Homo sapiens, MDA-MB-231, Triple negative breast cancer, incubation 48 h. Here is the method:
(§4) The MTT assay (Sigma-Aldrich) was used to measure cytotoxic capability of the ROR1 tyrosine kinase inhibitors (ROR1-TKI). Briefly, 2×10^4 cancer cells were incubated in triplicates in 200 μL of RPMI-1640 containing 10% FCS in 96 well plates. ROR1-TKI (dissolved in DMSO), were added to the cells. Cells treated with DMSO were used as negative control. Cells were incubated for 48, 72 or 96 h. An amount of 20 μL MTT solution was added and the cell suspension was incubated for 4 h at 37 degrees C. The reaction was stopped by adding 100 μL MTT solvent (10% SDS in 0.01 M HCl) and was incubated for further 2-4 h. The plate was then read by a microplate reader at 570 nm.
as §3
In general terms: Tetrazolium dyes change colour on reduction, which living cells bring about.

Assay [3] deals with MDA-V. The experiment in a line: MTT cytotoxicity assay, MDA-V. The settings on record: Hodgkin’s Lymphoma (HL), incubation 48 h. The protocol:
as §4, §3

For assay [4], the system named is KE37. Briefly: Flow cytometry Annexin V/PI apoptosis assay, KE37. To be noted: Homo sapiens, KE-37, KE37, T-cell acute lymphoblastic leukemia (T-ALL), incubation 48 h. The protocol:
(§5) Flow Cytometry Annexin V/PI Apoptosis Assay
(§6) An amount of 1 ml (10^5 cells/mL) of cells were seeded in each well of 6-well plates with and without compounds for 48 h. Cells were collected, washed with PBS, suspended in 100 μL of Annexin-V binding buffer (BD Biosciences) containing FITC-conjugated Annexin-V and PI (BD Biosciences) and incubated at room temperature in the dark for 20 min. After 20 min of incubation, 150 μL Annexin-V binding buffer was added. Viable cells were identified as the double negative Annexin-V and PI population. Samples were analyzed by a FACS Canto II Flow-cytometer (BD Biosciences).
as §3
Background: A flow cytometer gives signals particle by particle.

For assay [5], the system named is SupB15. Briefly: MTT cytotoxicity assay, SupB15. The settings on record: Homo sapiens, SUP-B15, SupB15, B-cell acute lymphoblastic leukemia (B-ALL), incubation 48 h. Here is the method: as §4, §3
Assay [6] has as its system KE37. The experiment in a line: MTT cytotoxicity assay, KE37. To be noted: Homo sapiens, KE-37, KE37, T-cell acute lymphoblastic leukemia (T-ALL), incubation 48 h. Here is the method:
as §4, §3

Assay [7] deals with H69. The experiment in a line: Alamar Blue cell viability assay, H69. The settings on record: Homo sapiens, NCI-H69; H69, Small cell lung cancer (SCLC), alamarBlue, incubation 72 h. The protocol:
as §1, §2, §3

The subject of assay [8] is H211. Briefly: Alamar Blue cell viability assay, H211. The settings on record: Homo sapiens, NCI-H211; H211, Small cell lung cancer, alamarBlue, incubation 72 h. The protocol:
as §1, §2, §3

Assay [9] relates to EHEB. The experiment in a line: MTT cytotoxicity assay, EHEB. To be noted: CLL cell line, DSMZ bank, (ACC 67), incubation 48 h. Here is the method:
as §4, §3

For assay [10], the system named is Reh. Briefly: MTT cytotoxicity assay, Reh. To be noted: Homo sapiens, Non-T-cell non-B-cell-acute lymphoblastic leukemia, incubation 48 h. The protocol: as §4, §3
The subject of assay [11] is H209. Briefly: Alamar Blue cell viability assay, H209. The settings on record: Homo sapiens, NCI-H209; H209, Small cell lung cancer, alamarBlue, incubation 72 h. Here is the method: as §1, §2, §3
For assay [12], the system named is RC-KB. The experiment in a line: MTT cytotoxicity assay, RC-KB. The settings on record: Diffuse large B-cell lymphoma (DLBCL), incubation 48 h. Here is the method: as §4, §3
The subject of assay [13] is SEM cells. Briefly: MTT cytotoxicity assay, SEM. To be noted: B-cell acute lymphoblastic leukemia (B-ALL), incubation 48 h. Here is the method:
as §4, §3

Assay [14] deals with SUDHL4. Briefly: MTT cytotoxicity assay, SUDHL4. The settings on record: Homo sapiens, SU-DHL-4, SUDHL4, Diffuse large B-cell lymphoma (DLBCL), incubation 48 h. Here is the method: as §4, §3
For assay [15], the system named is MDA-V. The experiment in a line: Flow cytometry Annexin V/PI apoptosis assay, MDA-V. The settings on record: Hodgkin’s Lymphoma (HL), incubation 48 h. The protocol: as §5, §6, §3
The test system of assay [16] is Mino. Briefly: MTT cytotoxicity assay, Mino. To be noted: Homo sapiens, Mantle Cell Lymphoma (MCL), incubation 96 h. The protocol:
as §4, §3

The subject of assay [17] is SupB15. The experiment in a line: Flow cytometry Annexin V/PI apoptosis assay, SupB15. To be noted: Homo sapiens, SUP-B15, SupB15, B-cell acute lymphoblastic leukemia (B-ALL), incubation 48 h. Here is the method:
as §5, §6, §3

Assay [18] concerns H23. The experiment in a line: MTT cytotoxicity assay, H23. To be noted: Homo sapiens, NCI-H23, H23, Non-small cell lung cancer, incubation 72 h. The protocol:
as §4, §3

The subject of assay [19] is AMO-1. The experiment in a line: MTT cytotoxicity assay, AMO-1. The settings on record: Homo sapiens, AMO1, AMO-1, Multiple Myeloma (MM), incubation 96 h. Here is the method: as §4, §3
The test system of assay [20] is HDLM2. Briefly: Flow cytometry Annexin V/PI apoptosis assay, HDLM2. To be noted: Homo sapiens, HDLM-2, HDLM2, Hodgkin’s Lymphoma (HL), incubation 48 h. Here is the method:
as §5, §6, §3

As to `CCOCCN1CCN(c2ccc(-c3nc4c(NC5CCN(CC)CC5)c(Br)cnc4[nH]3)cc2)CC1` [Example 172, 6-Bromo-2-{4-[4-(2-ethoxyethyl)piperazin-1-yl]phenyl}-N-(1-ethylpiperidin-4-yl)-3H-imidazo[4,5-b]pyridin-7-amine], the IC50 in assay [1] was determined as 540 nM; in assay [2], 150 nM; in assay [3] it was 50 nM; in assay [4] it was 180 nM; in assay [5], 50 nM; in assay [6], 200 nM. Also, the IC50 in assay [7] turned out to be 250 nM; in [8], 180 nM; in [9], 200 nM; in assay [10], 50 nM; in assay [11] it was 240 nM; in assay [12], 100 nM. For the same compound, the IC50 was 25 nM in assay [13]; 50 nM in [14]; 100 nM in assay [15]; 50 nM in assay [16]; 66 nM in assay [17]; 150 nM in assay [18]. In addition, the IC50 in assay [19] came to 50 nM; in [20], 100 nM.
